Experimental data published in the supplement of paper PMC10733146.

Legend:
Assay in all cases: viability relative to DMSO control (fraction); higher = less drug effect (more viable cells)
Conditions in all cases: 48 h
[1] = tested on: primary AML patient cells (S089)
Summary of the method: (§1)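 Using 384-well plates with compounds already plated at five concentrations, one well per concentration, 4 × 10^4 primary mononuclear tumour cells were added per well. Cells were Ficoll-isolated from blood or bone marrow or came from processed lymph node, fresh or cryopreserved. They were kept for 48 h at 37 °C and 5% CO2 in RPMI-1640 supplemented with penicillin/streptomycin, L-glutamine and human serum, and viability was read as CellTiter-Glo luminescence relative to the median of 16 inner DMSO wells.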

[2] = tested on: primary MCL patient cells (S053)
Summary of the method: as §1

[3] = tested on: primary AML patient cells (S025)
Summary of the method: as §1

[4] = tested on: primary AML patient cells (S012)
Summary of the method: as §1

[5] = tested on: primary AML patient cells (S072)
Summary of the method: as §1

[6] = tested on: primary AML patient cells (S019)
Summary of the method: as §1

[7] = tested on: primary AML patient cells (S002)
Summary of the method: as §1

[8] = tested on: primary CLL patient cells (S031)
Summary of the method: as §1

[9] = tested on: primary CLL patient cells (S043)
Summary of the method: as §1

[10] = tested on: primary AML patient cells (S037)
Summary of the method: as §1

[11] = tested on: primary AML patient cells (S091)
Summary of the method: as §1

[12] = tested on: primary ALL patient cells (S048)
Summary of the method: as §1

[13] = tested on: primary AML patient cells (S056)
Summary of the method: as §1

[14] = tested on: primary MCL patient cells (S068)
Summary of the method: as §1

[15] = tested on: primary AML patient cells (S085)
Summary of the method: as §1

[16] = tested on: primary AML patient cells (S017)
Summary of the method: as §1

[17] = tested on: primary FL patient cells (S022)
Summary of the method: as §1

[18] = tested on: primary AML patient cells (S071)
Summary of the method: as §1

[19] = tested on: primary BL patient cells (S005)
Summary of the method: as §1

[20] = tested on: primary AML patient cells (S079)
Summary of the method: as §1

## Cc1nc(Nc2ncc(C(=O)Nc3c(C)cccc3Cl)s2)cc(N2CCN(CCO)CC2)n1 [Dasatinib]
[1]; 0.0016 µM
  viability: 0.976
[1]; 0.008 µM
  viability: 1.03
[1]; 0.04 µM
  viability: 0.576
[1]; 0.2 µM
  viability: 0.504
[1]; 1 µM
  viability: 0.537
[2]; 0.0016 µM
  viability: 1.14
[2]; 0.008 µM
  viability: 0.882
[2]; 0.04 µM
  viability: 0.494
[2]; 0.2 µM
  viability: 0.342
[2]; 1 µM
  viability: 0.347
[3]; 0.0016 µM
  viability: 0.961
[3]; 0.008 µM
  viability: 1.02
[3]; 0.04 µM
  viability: 0.978
[3]; 0.2 µM
  viability: 0.965
[3]; 1 µM
  viability: 1.14
[4]; 0.0016 µM
  viability: 0.993
[4]; 0.008 µM
  viability: 0.917
[4]; 0.04 µM
  viability: 1.01
[4]; 0.2 µM
  viability: 1
[4]; 1 µM
  viability: 1.01
[5]; 0.0016 µM
  viability: 0.945
[5]; 0.008 µM
  viability: 0.851
[5]; 0.04 µM
  viability: 0.712
[5]; 0.2 µM
  viability: 0.623
[5]; 1 µM
  viability: 0.704
[6]; 0.0016 µM
  viability: 1.14
[6]; 0.008 µM
  viability: 1.14
[6]; 0.04 µM
  viability: 1.07
[6]; 0.2 µM
  viability: 0.986
[6]; 1 µM
  viability: 1.02
[7]; 0.0016 µM
  viability: 0.979
[7]; 0.008 µM
  viability: 1.04
[7]; 0.04 µM
  viability: 0.799
[7]; 0.2 µM
  viability: 0.764
[7]; 1 µM
  viability: 1.04
[8]; 0.0016 µM
  viability: 0.944
[8]; 0.008 µM
  viability: 0.609
[8]; 0.04 µM
  viability: 0.393
[8]; 0.2 µM
  viability: 0.325
[8]; 1 µM
  viability: 0.313
[9]; 0.0016 µM
  viability: 1.31
[9]; 0.008 µM
  viability: 1.2
[9]; 0.04 µM
  viability: 0.67
[9]; 0.2 µM
  viability: 0.595
[9]; 1 µM
  viability: 0.547
[10]; 0.0016 µM
  viability: 1.04
[10]; 0.008 µM
  viability: 1.01
[10]; 0.04 µM
  viability: 1
[10]; 0.2 µM
  viability: 0.982
[10]; 1 µM
  viability: 1.03
[11]; 0.0016 µM
  viability: 0.951
[11]; 0.008 µM
  viability: 0.924
[11]; 0.04 µM
  viability: 0.787
[11]; 0.2 µM
  viability: 0.784
[11]; 1 µM
  viability: 1.29
[12]; 0.0016 µM
  viability: 1.05
[12]; 0.008 µM
  viability: 0.937
[12]; 0.04 µM
  viability: 0.911
[12]; 0.2 µM
  viability: 0.864
[12]; 1 µM
  viability: 0.926
[13]; 0.0016 µM
  viability: 0.859
[13]; 0.008 µM
  viability: 1.03
[13]; 0.04 µM
  viability: 0.748
[13]; 0.2 µM
  viability: 0.63
[13]; 1 µM
  viability: 0.572
[14]; 0.0016 µM
  viability: 0.912
[14]; 0.008 µM
  viability: 0.671
[14]; 0.04 µM
  viability: 0.4
[14]; 0.2 µM
  viability: 0.341
[14]; 1 µM
  viability: 0.357
[15]; 0.0016 µM
  viability: 0.943
[15]; 0.008 µM
  viability: 0.736
[15]; 0.04 µM
  viability: 0.691
[15]; 0.2 µM
  viability: 0.605
[15]; 1 µM
  viability: 0.91
[16]; 0.0016 µM
  viability: 0.997
[16]; 0.008 µM
  viability: 0.859
[16]; 0.04 µM
  viability: 0.654
[16]; 0.2 µM
  viability: 0.689
[16]; 1 µM
  viability: 0.711
[17]; 0.0016 µM
  viability: 0.931
[17]; 0.008 µM
  viability: 0.857
[17]; 0.04 µM
  viability: 0.841
[17]; 0.2 µM
  viability: 0.773
[17]; 1 µM
  viability: 0.698
[18]; 0.0016 µM
  viability: 1.04
[18]; 0.008 µM
  viability: 1.05
[18]; 0.04 µM
  viability: 1
[18]; 0.2 µM
  viability: 0.948
[18]; 1 µM
  viability: 0.951
[19]; 0.0016 µM
  viability: 0.917
[19]; 0.008 µM
  viability: 0.807
[19]; 0.04 µM
  viability: 0.788
[19]; 0.2 µM
  viability: 0.7
[19]; 1 µM
  viability: 0.697
[20]; 0.0016 µM
  viability: 0.973
[20]; 0.008 µM
  viability: 0.911
[20]; 0.04 µM
  viability: 0.863
[20]; 0.2 µM
  viability: 0.812
[20]; 1 µM
  viability: 1.04
